Where “and” joins values, the source holds several entries; their conditions need not be identical. Equal entries are not always repeated.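 Test compounds were applied to cells in 96-well plates for 48 hours at 5 doses. GI50: concentration for 50% inhibition of growth. TGI marks complete inhibition of growth.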
test system: LOX IMVI melanoma; experiment: inhibition of tumour cell growth, NCI panel, 48 h

How did the GI50 turn out when `O=C1/C(=C\c2ccccc2)C2OCC=C3CN4CCC56c7ccccc7N1C5C2C3CC46` (stereo not given) was run?
Its GI50 is 4.9 µM.

And the TGI?
Its TGI is 49.8 µM.

Which results are given for `CCCCCCCCCCSC(=N)N`?
GI50: 2.76 µM; TGI: 9.37 µM

Which TGI does the source give for `Cc1cc(Br)cc(C)c1NC(=O)C(=O)Nn1c(=S)[nH]c2ccccc2c1=O` here?
Its TGI is over 100 µM.

Which results are given for `Cn1cc(-c2nc(N[C@@H]3CCCC[C@@H]3N)c(F)c3c2C(=O)NC3)cn1`?
GI50: 2.95 µM and 3.81 µM; TGI: 14.1 µM and 16.2 µM

Which GI50 does the source give for `CCOC(=O)c1c(C)n(Cc2ccccc2)c2c1cc1oc(=O)c(=O)n3cnc2c13` here?
The GI50 was 8.74 µM.

And the TGI?
Its TGI is 22.3 µM.

`O=C(/C=C/c1ccco1)c1ccc(Nc2nc(Nc3ccc(F)cc3)nc(Nc3ccc(F)cc3)n2)cc1` was tested. Which GI50 did it give?
Its GI50 is 17.6 µM.

What about the TGI of the same molecule?
The TGI was 45.3 µM.

Which GI50 does the source give for `O=C(NOCCO)c1cc(CN2OCCCC2=O)c(F)c(F)c1Nc1ccc(I)cc1F` here?
The GI50 was 0.112 µM and 0.164 µM.

What about the TGI of the same molecule?
The TGI was 12.2 µM and > 10 µM.

How did the GI50 turn out when `CN(C(=O)CNC(=O)/C=C/c1cccc(Cl)c1)C1CCS(=O)(=O)CC1` was run?
The GI50 was 0.7 µM.

And the TGI?
Its TGI is over 100 µM.

With `Cc1cc2nc3c4ccc(Br)cc4n(CCN(C)C)c3nc2cc1C` as the molecule, how does the GI50 read?
Its GI50 is 0.532 µM.

What about the TGI of the same molecule?
Its TGI is 1.9 µM.

How did the TGI turn out when `NNC(=O)C(O)C(O)C(=O)NN` (stereo not given) was run?
Its TGI is over 100 µM.

`O=C(/C=C/c1cccc2ccccc12)Nc1ncc(Cc2ccccc2)s1` was tested. Which GI50 did it give?
The GI50 was 0.445 µM.

What about the TGI of the same molecule?
Its TGI is 11 µM.

`CCCN1CCC=C(c2ccc(Nc3nc(Nc4ccccc4C(N)=O)c4cc[nH]c4n3)c(C)c2)C1` was tested. Which GI50 did it give?
The GI50 was 1.77 µM.

And the TGI?
Its TGI is over 25 µM.

test system: OVCAR-3 ovarian; experiment: inhibition of tumour cell growth, NCI panel, 48 h

Which GI50 does the source give for `O=C1/C(=C\c2ccccc2)C2OCC=C3CN4CCC56c7ccccc7N1C5C2C3CC46` (stereo not given) here?
Its GI50 is 36.5 µM.

And the TGI?
Its TGI is over 100 µM.

How did the GI50 turn out when `CCCCCCCCCCSC(=N)N` was run?
The GI50 was 3.71 µM.

And the TGI?
The TGI was 13.8 µM.

With `Cc1cc(Br)cc(C)c1NC(=O)C(=O)Nn1c(=S)[nH]c2ccccc2c1=O` as the molecule, how does the TGI read?
The TGI was over 100 µM.

How did the GI50 turn out when `Cn1cc(-c2nc(N[C@@H]3CCCC[C@@H]3N)c(F)c3c2C(=O)NC3)cn1` was run?
The GI50 was 15.1 µM and 15.6 µM.

What about the TGI of the same molecule?
Its TGI is 42.1 µM and 38.7 µM.

`CCOC(=O)c1c(C)n(Cc2ccccc2)c2c1cc1oc(=O)c(=O)n3cnc2c13` was tested. Which GI50 did it give?
The GI50 was 12.3 µM.

And the TGI?
The TGI was 34.7 µM.

Which results are given for `O=C(/C=C/c1ccco1)c1ccc(Nc2nc(Nc3ccc(F)cc3)nc(Nc3ccc(F)cc3)n2)cc1`?
GI50: 16.9 µM; TGI: 45.9 µM

`O=C(NOCCO)c1cc(CN2OCCCC2=O)c(F)c(F)c1Nc1ccc(I)cc1F` was tested. Which GI50 did it give?
The GI50 was 28.9 µM and > 10 µM.

And the TGI?
Its TGI is 98.7 µM and > 10 µM.

How did the GI50 turn out when `CN(C(=O)CNC(=O)/C=C/c1cccc(Cl)c1)C1CCS(=O)(=O)CC1` was run?
The GI50 was 1.21 µM.

And the TGI?
Its TGI is over 100 µM.

With `Cc1cc2nc3c4ccc(Br)cc4n(CCN(C)C)c3nc2cc1C` as the molecule, how does the GI50 read?
The GI50 was 2.04 µM.

And the TGI?
Its TGI is 6.96 µM.

Which TGI does the source give for `NNC(=O)C(O)C(O)C(=O)NN` (stereo not given) here?
Its TGI is over 100 µM.

For `O=C(/C=C/c1cccc2ccccc12)Nc1ncc(Cc2ccccc2)s1`, which GI50 is on record?
The GI50 was 0.738 µM.

What about the TGI of the same molecule?
The TGI was 3.22 µM.

Which GI50 does the source give for `CCCN1CCC=C(c2ccc(Nc3nc(Nc4ccccc4C(N)=O)c4cc[nH]c4n3)c(C)c2)C1` here?
The GI50 was 17.9 µM.

And the TGI?
Its TGI is over 25 µM.

test system: HCT-116 colon; experiment: inhibition of tumour cell growth, NCI panel, 48 h

For `O=C1/C(=C\c2ccccc2)C2OCC=C3CN4CCC56c7ccccc7N1C5C2C3CC46` (stereo not given), which GI50 is on record?
Its GI50 is 6 µM.

And the TGI?
Its TGI is over 100 µM.

Which results are given for `CCCCCCCCCCSC(=N)N`?
GI50: 2.96 µM; TGI: 10.1 µM

How did the TGI turn out when `Cc1cc(Br)cc(C)c1NC(=O)C(=O)Nn1c(=S)[nH]c2ccccc2c1=O` was run?
Its TGI is over 100 µM.

How did the GI50 turn out when `Cn1cc(-c2nc(N[C@@H]3CCCC[C@@H]3N)c(F)c3c2C(=O)NC3)cn1` was run?
Its GI50 is 3.66 µM and 4.67 µM.

And the TGI?
Its TGI is 47.7 µM and > 83.3 µM.

How did the GI50 turn out when `CCOC(=O)c1c(C)n(Cc2ccccc2)c2c1cc1oc(=O)c(=O)n3cnc2c13` was run?
Its GI50 is 7.36 µM.

What about the TGI of the same molecule?
Its TGI is 15.3 µM.

For `O=C(/C=C/c1ccco1)c1ccc(Nc2nc(Nc3ccc(F)cc3)nc(Nc3ccc(F)cc3)n2)cc1`, which GI50 is on record?
The GI50 was 21 µM.

And the TGI?
The TGI was over 100 µM.

Which GI50 does the source give for `O=C(NOCCO)c1cc(CN2OCCCC2=O)c(F)c(F)c1Nc1ccc(I)cc1F` here?
Its GI50 is 0.0171 µM and 0.0207 µM.

What about the TGI of the same molecule?
Its TGI is 28.6 µM and > 10 µM.

Which GI50 does the source give for `CN(C(=O)CNC(=O)/C=C/c1cccc(Cl)c1)C1CCS(=O)(=O)CC1` here?
Its GI50 is 1.52 µM.

What about the TGI of the same molecule?
The TGI was over 100 µM.

With `Cc1cc2nc3c4ccc(Br)cc4n(CCN(C)C)c3nc2cc1C` as the molecule, how does the GI50 read?
Its GI50 is 0.451 µM.

What about the TGI of the same molecule?
The TGI was 2.14 µM.

How did the TGI turn out when `NNC(=O)C(O)C(O)C(=O)NN` (stereo not given) was run?
The TGI was over 100 µM.

For `O=C(/C=C/c1cccc2ccccc12)Nc1ncc(Cc2ccccc2)s1`, which GI50 is on record?
The GI50 was 0.46 µM.

What about the TGI of the same molecule?
The TGI was 11.6 µM.

`CCCN1CCC=C(c2ccc(Nc3nc(Nc4ccccc4C(N)=O)c4cc[nH]c4n3)c(C)c2)C1` was tested. Which GI50 did it give?
Its GI50 is 2.56 µM.

And the TGI?
The TGI was over 25 µM.

test system: SK-OV-3 ovarian; experiment: inhibition of tumour cell growth, NCI panel, 48 h

Which results are given for `O=C1/C(=C\c2ccccc2)C2OCC=C3CN4CCC56c7ccccc7N1C5C2C3CC46` (stereo not given)?
GI50: > 100 µM; TGI: > 100 µM

Which GI50 does the source give for `CCCCCCCCCCSC(=N)N` here?
Its GI50 is 7.38 µM.

What about the TGI of the same molecule?
The TGI was 19.9 µM.

For `Cc1cc(Br)cc(C)c1NC(=O)C(=O)Nn1c(=S)[nH]c2ccccc2c1=O`, which TGI is on record?
Its TGI is over 100 µM.

For `Cn1cc(-c2nc(N[C@@H]3CCCC[C@@H]3N)c(F)c3c2C(=O)NC3)cn1`, which GI50 is on record?
Its GI50 is 4.06 µM and 3.77 µM.

What about the TGI of the same molecule?
Its TGI is 40.1 µM and 43.8 µM.

Which results are given for `CCOC(=O)c1c(C)n(Cc2ccccc2)c2c1cc1oc(=O)c(=O)n3cnc2c13`?
GI50: > 50 µM; TGI: > 50 µM

What does the source list for `O=C(/C=C/c1ccco1)c1ccc(Nc2nc(Nc3ccc(F)cc3)nc(Nc3ccc(F)cc3)n2)cc1`?
GI50: 32 µM; TGI: > 100 µM

For `O=C(NOCCO)c1cc(CN2OCCCC2=O)c(F)c(F)c1Nc1ccc(I)cc1F`, which GI50 is on record?
The GI50 was 22.6 µM and > 2.5 µM.

And the TGI?
Its TGI is over 85.8 µM.

What does the source list for `CN(C(=O)CNC(=O)/C=C/c1cccc(Cl)c1)C1CCS(=O)(=O)CC1`?
GI50: 18.2 µM; TGI: > 100 µM

`Cc1cc2nc3c4ccc(Br)cc4n(CCN(C)C)c3nc2cc1C` was tested. Which GI50 did it give?
The GI50 was 2.65 µM.

And the TGI?
The TGI was 12.7 µM.

With `NNC(=O)C(O)C(O)C(=O)NN` (stereo not given) as the molecule, how does the TGI read?
Its TGI is over 100 µM.

`O=C(/C=C/c1cccc2ccccc12)Nc1ncc(Cc2ccccc2)s1` was tested. Which GI50 did it give?
The GI50 was 1.71 µM.

What about the TGI of the same molecule?
Its TGI is over 29.9 µM.

Which results are given for `CCCN1CCC=C(c2ccc(Nc3nc(Nc4ccccc4C(N)=O)c4cc[nH]c4n3)c(C)c2)C1`?
GI50: 9.68 µM; TGI: > 25 µM

test system: RPMI-8226 leukemia; experiment: inhibition of tumour cell growth, NCI panel, 48 h

Which GI50 does the source give for `O=C1/C(=C\c2ccccc2)C2OCC=C3CN4CCC56c7ccccc7N1C5C2C3CC46` (stereo not given) here?
The GI50 was 5.54 µM.

And the TGI?
Its TGI is over 100 µM.

For `CCCCCCCCCCSC(=N)N`, which GI50 is on record?
Its GI50 is 1.73 µM.

What about the TGI of the same molecule?
Its TGI is 4.19 µM.

`Cc1cc(Br)cc(C)c1NC(=O)C(=O)Nn1c(=S)[nH]c2ccccc2c1=O` was tested. Which TGI did it give?
The TGI was over 100 µM.

Which GI50 does the source give for `Cn1cc(-c2nc(N[C@@H]3CCCC[C@@H]3N)c(F)c3c2C(=O)NC3)cn1` here?
The GI50 was 26.2 µM and 29.1 µM.

And the TGI?
Its TGI is over 100 µM.

For `CCOC(=O)c1c(C)n(Cc2ccccc2)c2c1cc1oc(=O)c(=O)n3cnc2c13`, which GI50 is on record?
Its GI50 is 1.86 µM.

And the TGI?
The TGI was 14.1 µM.

Which GI50 does the source give for `O=C(/C=C/c1ccco1)c1ccc(Nc2nc(Nc3ccc(F)cc3)nc(Nc3ccc(F)cc3)n2)cc1` here?
The GI50 was 8.99 µM.

What about the TGI of the same molecule?
The TGI was over 100 µM.

With `O=C(NOCCO)c1cc(CN2OCCCC2=O)c(F)c(F)c1Nc1ccc(I)cc1F` as the molecule, how does the GI50 read?
The GI50 was 21.7 µM and > 5.14 µM.

And the TGI?
Its TGI is over 84.4 µM.

For `CN(C(=O)CNC(=O)/C=C/c1cccc(Cl)c1)C1CCS(=O)(=O)CC1`, which GI50 is on record?
Its GI50 is 14.8 µM.

What about the TGI of the same molecule?
The TGI was over 100 µM.

Which GI50 does the source give for `Cc1cc2nc3c4ccc(Br)cc4n(CCN(C)C)c3nc2cc1C` here?
Its GI50 is 2.16 µM.

And the TGI?
The TGI was 5.93 µM.

`NNC(=O)C(O)C(O)C(=O)NN` (stereo not given) was tested. Which TGI did it give?
The TGI was over 100 µM.

With `O=C(/C=C/c1cccc2ccccc12)Nc1ncc(Cc2ccccc2)s1` as the molecule, how does the GI50 read?
The GI50 was 1.09 µM.

And the TGI?
The TGI was over 100 µM.

For `CCCN1CCC=C(c2ccc(Nc3nc(Nc4ccccc4C(N)=O)c4cc[nH]c4n3)c(C)c2)C1`, which GI50 is on record?
The GI50 was 5.53 µM.

And the TGI?
Its TGI is over 21.7 µM.

Source: PubChem BioAssay (NCI)
